The text below walks through data of patent publication US11026958B2, “Substituted 6-membered aryl or heteroaryl allosteric modulators of nicotinic acetylcholine receptors” (Merck Sharp & Dohme Corp., priority 2016, dated 2021).

Like-named read-outs stand apart in the source and are kept apart here.

For the assay, the target named is human α7 nAChR (Homo sapiens (Human), UniProt P36544). As to the kind of experiment: Automated patch-clamp electrophysiology functional assay (Assay A), IonFlux HT. The assay is classed as cell-based. The following applies: HEK cell line stably expressing human RIC-3 and human α7, whole-cell population patch, 40 μM acetylcholine. As for the experimental part:
The α7 nAChR positive allosteric modulator (PAM) activity of the present compounds may be tested using assays known in the art. The α7 nAChR PAMs described herein have activities in an automated patch-clamp electrophysiology functional assay as described in the examples. The assay was performed using the IonFlux HT in a whole-cell, population patch configuration. See Golden et al. Assay Drug Dev. Technol. (2011) 9:608-619. The compounds were assessed for their ability to modulate the function of the human α7 nAChR stably expressed in a HEK cell line both in the presence, and in the absence of the natural α7 agonist acetylcholine. By performing a series of such measurements at different concentrations, the effective concentration of the α7 nAChR PAMs (EC50) was determined. See Spencer et al. Assay Drug Dev. Technol. (2012) 10:313-324.
Automated patch-clamp electrophysiology was performed using the IonFlux HT (Fluxion Biosciences Inc., San Francisco, Calif.) in the whole-cell, population patch configuration. Test compounds were assessed for their ability to modulate the function of the α7 nicotinic acetylcholine receptor both in the presence, and in the absence of the natural α7 agonist acetylcholine. A HEK cell line stably expressing both human RIC-3 and human α7 (PrecisION hnAChR α7/RIC-3, Eurofins Pharma, St. Charles, Mo.) was cultured in 175 cm^2 triple-layer tissue culture flasks to no more than 90% confluency in DMEM/F-12 growth media supplemented with 10% heat-inactivated fetal bovine serum, 1% non-essential amino acids, 0.625 μg/mL Puromycin, and 400 μg/mL Geneticin. Immediately prior to assay, cells were detached by first aspirating growth media, rinsing with Dulbecco's phosphate buffered saline, and then adding 10 mL of Accutase (Innovative Cell Technologies, San Diego, Calif.) to the flask and then incubating at 37° C. for 5 minutes. Detached cells were then recovered by the addition of 40 mL of CHO-serum-free media supplemented with 25 mM HEPES, and rocked gently in a 50 mL conical tube for 20 minutes prior to patch-clamp assay. After recovery, cells were pelleted by centrifugation at 1,000 RPM for 1 minute in a compact bench top centrifuge; recovery media was aspirated and cells were resuspended in external recording solution (150 mM NaCl, 5 mM KCl, 2 mM CaCl2, 1 mM MgCl2, 10 mM HEPES, 12 mM dextrose) to a density of 5.0×10^6 cells/mL. The cell suspension was added to the cell inlet wells on an IonFlux HT population patch plate which had previously been rinsed and primed with deionized H2O. Test compounds were serially diluted in DMSO and then resuspended to the final test concentration in external recording solution, with, or without 40 μM acetylcholine added to the external recording solution; test compounds were then transferred to the IonFlux HT population patch plate. Internal recording solution (110 mM TrisPO4, 28 mM TrisBase, 0.1 mM CaCl2, 2 mM MgCl2, 11 mM EGTA, 4 mM MgATP) was added to the internal recording solution inlet wells on the IonFlux HT patch plate previously loaded with cells and test compounds, and the plate loaded into the IonFlux HT instrument. A protocol was executed on the IonFlux HT to trap the cells, break into the cells, and establish the whole-cell recording configuration; cells were voltage-clamped at a holding potential of −60 mV for the duration of the experiment, all experiments were conducted at room temperature, and the IonFlux HT injection pressure was 8 psi for solution applications. Upon establishing the whole-cell configuration, external recording solution was perfused into the recording chambers for 120 seconds and then 40 μM acetylcholine was applied for 1 second and immediately washed off with external recording solution for 60 seconds. The 40 μM acetylcholine-evoked α7 current served as the current response to which subsequent test compound effects, in the presence, or in the absence of 40 μM acetylcholine would be quantified relative to. […]
Background: Patch clamp records ionic current or voltage across a cell membrane.

Sequence of human α7 nAChR (P36544 23-502): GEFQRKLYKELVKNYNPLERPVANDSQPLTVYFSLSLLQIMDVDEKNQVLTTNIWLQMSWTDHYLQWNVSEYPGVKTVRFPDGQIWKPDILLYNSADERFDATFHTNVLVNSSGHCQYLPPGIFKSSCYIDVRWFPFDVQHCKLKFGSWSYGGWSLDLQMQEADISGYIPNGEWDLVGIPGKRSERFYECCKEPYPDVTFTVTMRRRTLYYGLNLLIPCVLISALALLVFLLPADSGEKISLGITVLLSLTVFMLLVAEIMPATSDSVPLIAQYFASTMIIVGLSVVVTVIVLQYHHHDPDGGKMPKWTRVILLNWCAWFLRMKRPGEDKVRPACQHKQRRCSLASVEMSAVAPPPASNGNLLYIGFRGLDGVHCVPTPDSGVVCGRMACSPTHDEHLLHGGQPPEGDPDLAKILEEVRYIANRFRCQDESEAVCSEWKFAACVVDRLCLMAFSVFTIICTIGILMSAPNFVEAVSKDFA

Turning to `NS(=O)(=O)c1ccc(C2CC2c2nccc(-c3cccc(F)c3)n2)cc1` (single isomer, unassigned) [Example 10, 4-{trans-2-[4-(3-Fluorophenyl)pyrimidin-2-yl]cyclopropyl}benzenesulfonamide], the EC50 was 0.21 µM (read-out: α7 nAChR EC50) and 0.1 to 0.5 µM (read-out: α7 nAChR Potency).

`NS(=O)(=O)c1ccc(C2CC2c2ccnc(NCCc3ccccc3)n2)cc1` (racemic) [Example D10, 4-(trans-2-{2-[(2-Phenylethyl)amino]pyrimidin-4-yl}cyclopropyl)benzenesulfonamide]: the EC50 (read-out: α7 nAChR EC50) is 1.1 µM and the EC50 (read-out: α7 nAChR Potency) is 0.5 to 5 µM.

As to “4-{trans-2-[2-(Benzylamino)pyrimidin-4-yl]cyclopropyl}benzenesulfonamide [Example D3]”, the EC50 (read-out: α7 nAChR Potency) lay in the range of 0.5 to 5 µM.

With `CC(C)c1cccc(C2CC2c2ccc(S(N)(=O)=O)cc2)n1` (racemic) [Example A10, 4-{trans-2-[6-(Propan-2-yl)pyridin-2-yl]cyclopropyl}benzenesulfonamide], the EC50 (read-out: α7 nAChR Potency) lay in the range of 0.5 to 5 µM.

For the molecule `CC(C)c1ccnc(C2CC2c2ccc(S(N)(=O)=O)cc2)n1` (racemic) [Example C3, 4-{trans-2-[4-(Propan-2-yl)pyrimidin-2-yl]cyclopropyl}benzenesulfonamide], the EC50 by setting is: (read-out: α7 nAChR EC50) 1.8 µM; (read-out: α7 nAChR Potency) 0.5 to 5 µM.

As to `NS(=O)(=O)c1ccc(C2CC2c2cncc(N3CCCC3)c2)cc1` (racemic) [Example G2, 4-{trans-2-[5-(Pyrrolidin-1-yl)pyridin-3-yl]cyclopropyl}benzenesulfonamide], the EC50 (read-out: α7 nAChR EC50) came to 3.2 µM and the EC50 (read-out: α7 nAChR Potency) lay within 0.5 to 5 µM.

As to `NS(=O)(=O)c1ccc([C@@H]2C[C@H]2c2cccc(C3CCCC3)n2)cc1` (racemic) [Example A12, 4-[trans-2-(6-Cyclopentylpyridin-2-yl)cyclopropyl]benzenesulfonamide], the EC50 (read-out: α7 nAChR Potency) was in the range of 0.1 to 0.5 µM.

For the molecule `NS(=O)(=O)c1ccc(C2CC2c2ccnc(-c3ccccc3)n2)cc1` (racemic) [Example D9, 4-[trans-2-(2-Phenylpyrimidin-4-yl)cyclopropyl]benzenesulfonamide], the EC50 (read-out: α7 nAChR Potency) lay within 0.5 to 5 µM.

As to `CC1(C)[C@H](c2ccc(S(N)(=O)=O)cc2)[C@H]1c1nccc(-c2cncc(C(F)(F)F)c2)n1` [Example 9, 4-[(1R,3R)-2,2-Dimethyl-3-{4-[5-(trifluoromethyl)pyridin-3-yl]pyrimidin-2-yl}cyclopropyl]benzenesulfonamide], the EC50 is, setting by setting: (read-out: α7 nAChR EC50) 1.4 µM; (read-out: α7 nAChR Potency) 0.5 to 5 µM.

Regarding `NS(=O)(=O)c1ccc([C@@H]2C[C@H]2c2ccc(C3CCCC3)cn2)cc1` (racemic) [Example A13, 4-[trans-2-(5-Cyclopentylpyridin-2-yl)cyclopropyl]benzenesulfonamide], the EC50 (read-out: α7 nAChR EC50) was 1.5 µM and the EC50 (read-out: α7 nAChR Potency) was in the range of 0.5 to 5 µM.

Regarding `CC(C)c1ccc(C2CC2c2ccc(S(N)(=O)=O)cc2)cn1` (racemic) [Example G1, 4{-trans-2-[6-(Propan-2-yl)pyridin-3-yl]cyclopropyl}benzenesulfonamide], the EC50 (read-out: α7 nAChR Potency) lay in the range of 0.5 to 5 µM.

“4-(trans-2-{2-[(2,2-Dimethylpropyl)amino]pyrimidin-4-yl}cyclopropyl)benzenesulfonamide [Example D5]”: the EC50 is 1.8 µM (read-out: α7 nAChR EC50) and 0.5 to 5 µM (read-out: α7 nAChR Potency).

For the molecule `NS(=O)(=O)c1ccc([C@@H]2C[C@H]2c2ccc(-n3ccnc3)cc2)cc1` (racemic) [Example F1, 4-{trans-2-[4-(1H-Imidazol-1-yl)phenyl]cyclopropyl}benzenesulfonamide], the EC50 (read-out: α7 nAChR EC50) turned out to be 3.7 µM and the EC50 (read-out: α7 nAChR Potency) is 0.5 to 5 µM.

Consider `CC(C)c1cccnc1C1CC1c1ccc(S(N)(=O)=O)cc1` (racemic) [Example A7, 4-{trans-2-[3-(Propan-2-yl)pyridin-2-yl]cyclopropyl}benzenesulfonamide], for which the EC50 reads like this: (read-out: α7 nAChR EC50) 2.4 µM; (read-out: α7 nAChR Potency) 0.5 to 5 µM.

Regarding `CC(C)(C#N)c1ccc([C@@H]2C[C@H]2c2ccc(S(N)(=O)=O)cc2)cn1` (racemic) [Example G5, 4-{trans-2-[6-(2-Cyanopropan-2-yl)pyridin-3-yl]cyclopropyl}benzenesulfonamide], the EC50 was 3.4 µM (read-out: α7 nAChR EC50) and 0.5 to 5 µM (read-out: α7 nAChR Potency).

In the case of `NS(=O)(=O)c1ccc(C2CC2c2nccc(-c3cncc(C(F)(F)F)c3)n2)cc1` (single isomer, unassigned) [Example 11, 4-(trans-2-{4-[5-(Trifluoromethyl)pyridin-3-yl]pyrimidin-2-yl}cyclopropyl)benzenesulfonamide], the EC50 is, setting by setting: (read-out: α7 nAChR EC50) 0.24 µM; (read-out: α7 nAChR Potency) 0.1 to 0.5 µM.

As to `CC(C)c1cnc(C2CC2c2ccc(S(N)(=O)=O)cc2)nc1` (racemic) [Example C2, 4-{trans-2-[5-(Propan-2-yl)pyrimidin-2-yl]cyclopropyl}benzenesulfonamide], the EC50 (read-out: α7 nAChR Potency) was 0.5 to 5 µM.

`CC(C)c1cc(C2CC2c2ccc(S(N)(=O)=O)cc2)ccn1` (single isomer, unassigned) [Example 8, 4-{trans-2-[2-(Propan-2-yl)pyridin-4-yl]cyclopropyl}benzenesulfonamide]: the EC50 (read-out: α7 nAChR EC50) was 1.2 µM and the EC50 (read-out: α7 nAChR Potency) was in the range of 0.5 to 5 µM.

Regarding `NS(=O)(=O)c1ccc([C@@H]2C[C@H]2c2nccc(-c3cncc(C(F)(F)F)c3)n2)cc1` (single isomer, unassigned) [Example C5, 4-(trans-2-{4-[5-(trifluoromethyl)pyridin-3-yl]pyrimidin-2-yl}cyclopropyl)benzenesulfonamide], the EC50 was 3.3 µM (read-out: α7 nAChR EC50) and 0.5 to 5 µM (read-out: α7 nAChR Potency).

For `NS(=O)(=O)c1ccc([C@@H]2C[C@H]2c2cccc(C3CCCC3)n2)cc1` (single isomer, unassigned) [Example A4, 4-[trans-2-(6-Cyclopentylpyridin-2-yl)cyclopropyl]benzenesulfonamide], where the note is “read-out: α7 nAChR Potency”, the EC50 fell in the range of 0.5 to 5 µM.

Take `CC(C)c1cccc(C2CC2c2ccc(S(N)(=O)=O)cc2)n1` (single isomer, unassigned) [Example 1, 4-{trans-2-[6-(Propan-2-yl)pyridin-2-yl]cyclopropyl}benzenesulfonamide]: the EC50 reads like this: (read-out: α7 nAChR EC50) 0.5 µM; (read-out: α7 nAChR Potency) 0.1 to 0.5 µM.

For the molecule `CC(C)c1ccnc(C2CC2c2ccc(S(N)(=O)=O)cc2)c1` (racemic) [Example A11, 4-{trans-2-[4-(Propan-2-yl)pyridin-2-yl]cyclopropyl}benzenesulfonamide], the EC50 (read-out: α7 nAChR EC50) is 0.46 µM and the EC50 (read-out: α7 nAChR Potency) lay in the range of 0.1 to 0.5 µM.

Take `CC(C)c1cnc(C2CC2c2ccc(S(N)(=O)=O)cc2)nc1` (single isomer, unassigned) [Example C1, 4-{trans-2-[5-(Propan-2-yl)pyrimidin-2-yl]cyclopropyl}benzenesulfonamide]: the EC50 reads like this: (read-out: α7 nAChR EC50) 0.28 µM; (read-out: α7 nAChR Potency) 0.1 to 0.5 µM.

Turning to “4-(trans-2-{2-[Methyl(phenyl)amino]pyrimidin-4-yl}cyclopropyl)benzenesulfonamide [Example D6]”, the EC50 (read-out: α7 nAChR Potency) was in the range of 0.5 to 5 µM.

With `CC(C)c1cccc(C2CC2c2ccc(S(N)(=O)=O)cc2)n1` (single isomer, unassigned) [Example A1, 4-{trans-2-[6-(Propan-2-yl)pyridin-2-yl]cyclopropyl}benzenesulfonamide], the EC50 (read-out: α7 nAChR Potency) lay in the range of 0.5 to 5 µM.

As to `Cc1nc(-c2cccc([C@@H]3C[C@H]3c3ccc(S(N)(=O)=O)cc3)c2)no1` (relative stereo) [Example 7, 4-{trans-2-[3-(5-Methyl-1,2,4-oxadiazol-3-yl)phenyl]cyclopropyl}benzenesulfonamide], the EC50 is, setting by setting: (read-out: α7 nAChR EC50) 0.32 µM; (read-out: α7 nAChR Potency) 0.1 to 0.5 µM.

As for “4-{trans-2-[2-(Cyclopentylamino)pyrimidin-4-yl]cyclopropyl}benzenesulfonamide [Example D2]”, the EC50 (read-out: α7 nAChR EC50) turned out to be 2.2 µM and the EC50 (read-out: α7 nAChR Potency) lay within 0.5 to 5 µM.
